Reference: ChEMBL document CHEMBL1129884, “Hindered rotation congeners of mazapertine: High affinity ligands for the 5-HT1A receptor” (Bioorg Med Chem Lett, 1997)

How the values were obtained:
[1] = molecular target: Serotonin 3 (5-HT3) receptor (Homo sapiens) (UniProt P46098+A5X5Y0+O95264+Q70Z44+Q8WXA8); test: Compound was measured for its binding affinity at 5-hydroxytryptamine 3 receptor at a concentration of 10 uM using [3H]BRL-43694 as radioligand; type: protein-complex assay
[2] = molecular target: 5-hydroxytryptamine receptor 1B (Homo sapiens) (UniProt P28222); test: Compound was measured for its binding affinity at 5-hydroxytryptamine 1B receptor at a concentration of 100 nM using [125I]CYP as radioligand
Chain of 5-hydroxytryptamine receptor 1B (Homo sapiens) (P28222 whole entry): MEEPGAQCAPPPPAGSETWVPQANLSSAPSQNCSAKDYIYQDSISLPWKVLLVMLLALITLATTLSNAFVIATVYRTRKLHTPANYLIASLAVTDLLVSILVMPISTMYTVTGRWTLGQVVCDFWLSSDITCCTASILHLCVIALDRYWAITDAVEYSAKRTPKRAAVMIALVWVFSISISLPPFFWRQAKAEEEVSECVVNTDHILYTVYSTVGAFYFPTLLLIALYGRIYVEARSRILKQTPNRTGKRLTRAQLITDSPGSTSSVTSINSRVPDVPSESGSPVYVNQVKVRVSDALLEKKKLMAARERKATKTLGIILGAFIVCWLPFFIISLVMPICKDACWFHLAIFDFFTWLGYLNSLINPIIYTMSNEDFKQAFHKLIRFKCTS

Rattus norvegicus [3] = test: Compound was measured for its antipsychotic activity in the rat conditioned avoidance test, at a dose of 15 mg/kg administered perorally; type: functional; details: route oral
[4] = molecular target: T1, Adrenergic receptor alpha-1 (Homo sapiens, UniProt P35348+P25100+P35368); test: Compound was measured […] for its binding affinity at Alpha-1 adrenergic receptor using [3H]prazosin as radioligand.
T1 sequence (P35348 whole entry): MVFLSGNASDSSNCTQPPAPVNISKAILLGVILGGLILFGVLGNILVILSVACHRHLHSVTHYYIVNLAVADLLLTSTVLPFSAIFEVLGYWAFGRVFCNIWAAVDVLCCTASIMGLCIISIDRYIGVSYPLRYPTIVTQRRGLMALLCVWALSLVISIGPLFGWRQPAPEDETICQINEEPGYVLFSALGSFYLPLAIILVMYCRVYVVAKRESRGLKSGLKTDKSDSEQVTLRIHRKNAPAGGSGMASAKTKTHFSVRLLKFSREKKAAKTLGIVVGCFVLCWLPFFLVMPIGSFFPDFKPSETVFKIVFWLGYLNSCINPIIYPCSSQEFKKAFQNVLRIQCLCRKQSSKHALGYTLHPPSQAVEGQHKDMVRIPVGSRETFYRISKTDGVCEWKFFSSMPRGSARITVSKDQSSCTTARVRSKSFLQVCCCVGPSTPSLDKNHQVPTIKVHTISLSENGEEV
T1 sequence (P25100 whole entry): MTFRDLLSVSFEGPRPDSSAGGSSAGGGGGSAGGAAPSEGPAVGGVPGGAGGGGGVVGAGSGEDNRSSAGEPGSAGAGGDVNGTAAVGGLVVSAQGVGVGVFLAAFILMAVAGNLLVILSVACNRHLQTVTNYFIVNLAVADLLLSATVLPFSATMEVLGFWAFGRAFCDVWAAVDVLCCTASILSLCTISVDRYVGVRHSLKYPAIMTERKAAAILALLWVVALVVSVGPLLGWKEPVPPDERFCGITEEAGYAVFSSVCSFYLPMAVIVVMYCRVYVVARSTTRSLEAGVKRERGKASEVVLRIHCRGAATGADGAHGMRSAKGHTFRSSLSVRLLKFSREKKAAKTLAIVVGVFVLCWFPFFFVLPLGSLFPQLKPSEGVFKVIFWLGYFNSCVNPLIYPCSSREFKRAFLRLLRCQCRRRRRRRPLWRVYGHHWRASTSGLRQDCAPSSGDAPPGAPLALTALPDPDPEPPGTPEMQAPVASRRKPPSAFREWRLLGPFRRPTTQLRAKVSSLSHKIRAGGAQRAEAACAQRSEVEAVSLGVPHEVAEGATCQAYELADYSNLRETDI
T1 sequence (P35368 whole entry): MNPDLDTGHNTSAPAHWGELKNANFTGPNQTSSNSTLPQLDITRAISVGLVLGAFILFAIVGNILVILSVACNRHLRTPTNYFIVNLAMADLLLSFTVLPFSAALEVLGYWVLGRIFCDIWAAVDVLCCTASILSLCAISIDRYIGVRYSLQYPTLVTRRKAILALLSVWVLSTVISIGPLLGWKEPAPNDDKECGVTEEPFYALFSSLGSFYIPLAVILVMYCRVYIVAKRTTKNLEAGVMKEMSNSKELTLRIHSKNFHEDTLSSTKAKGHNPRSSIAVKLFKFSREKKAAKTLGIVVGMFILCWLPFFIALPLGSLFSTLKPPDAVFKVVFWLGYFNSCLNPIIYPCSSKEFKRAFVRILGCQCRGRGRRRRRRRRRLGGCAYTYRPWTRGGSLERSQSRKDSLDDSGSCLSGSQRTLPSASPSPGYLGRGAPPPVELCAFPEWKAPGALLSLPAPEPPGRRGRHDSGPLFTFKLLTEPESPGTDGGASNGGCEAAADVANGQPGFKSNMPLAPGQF

[5] = molecular target: Serotonin 2 (5-HT2) receptor (Homo sapiens) (UniProt P41595+P28223+P28335); test: Compound was measured for its binding affinity at 5-hydroxytryptamine 2 receptor at a concentration of 10 uM using [3H]ketanserin as radioligand; type: protein assay
Chain of Serotonin 2 (5-HT2) receptor (Homo sapiens) (P28223 whole entry, looked up, one chain of several): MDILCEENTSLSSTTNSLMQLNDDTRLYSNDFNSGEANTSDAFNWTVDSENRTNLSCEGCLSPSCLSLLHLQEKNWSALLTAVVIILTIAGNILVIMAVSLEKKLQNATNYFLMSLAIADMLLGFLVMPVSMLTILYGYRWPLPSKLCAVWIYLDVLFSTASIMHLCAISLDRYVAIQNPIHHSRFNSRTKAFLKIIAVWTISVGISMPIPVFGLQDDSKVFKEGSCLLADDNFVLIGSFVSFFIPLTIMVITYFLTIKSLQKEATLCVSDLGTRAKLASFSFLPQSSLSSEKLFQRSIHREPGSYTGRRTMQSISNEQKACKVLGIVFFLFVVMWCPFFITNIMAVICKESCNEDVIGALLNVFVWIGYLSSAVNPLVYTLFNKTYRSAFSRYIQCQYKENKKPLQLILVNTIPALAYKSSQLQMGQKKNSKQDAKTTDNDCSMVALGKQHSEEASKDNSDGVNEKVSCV
Chain of Serotonin 2 (5-HT2) receptor (Homo sapiens) (P41595 whole entry, looked up, one chain of several): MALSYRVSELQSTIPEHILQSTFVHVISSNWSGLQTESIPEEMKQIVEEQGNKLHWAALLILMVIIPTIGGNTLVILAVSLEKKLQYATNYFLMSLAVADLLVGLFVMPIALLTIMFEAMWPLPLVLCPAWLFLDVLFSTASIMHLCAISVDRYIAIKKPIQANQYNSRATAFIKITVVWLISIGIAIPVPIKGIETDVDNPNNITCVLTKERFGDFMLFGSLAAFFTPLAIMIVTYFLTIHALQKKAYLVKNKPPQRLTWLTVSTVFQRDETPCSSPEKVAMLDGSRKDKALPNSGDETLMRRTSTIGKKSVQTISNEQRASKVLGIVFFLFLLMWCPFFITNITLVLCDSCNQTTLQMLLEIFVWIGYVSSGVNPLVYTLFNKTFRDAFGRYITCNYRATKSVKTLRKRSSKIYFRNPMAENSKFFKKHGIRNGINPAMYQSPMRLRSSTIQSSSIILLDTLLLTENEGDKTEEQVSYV

D(3) dopamine receptor [6] = molecular target: T2, D(3) dopamine receptor (Homo sapiens, UniProt P35462); test: Compound was measured […] for its inhibition of Dopamine receptor D3 at a concentration of 100 nM
T2 sequence (P35462 whole entry): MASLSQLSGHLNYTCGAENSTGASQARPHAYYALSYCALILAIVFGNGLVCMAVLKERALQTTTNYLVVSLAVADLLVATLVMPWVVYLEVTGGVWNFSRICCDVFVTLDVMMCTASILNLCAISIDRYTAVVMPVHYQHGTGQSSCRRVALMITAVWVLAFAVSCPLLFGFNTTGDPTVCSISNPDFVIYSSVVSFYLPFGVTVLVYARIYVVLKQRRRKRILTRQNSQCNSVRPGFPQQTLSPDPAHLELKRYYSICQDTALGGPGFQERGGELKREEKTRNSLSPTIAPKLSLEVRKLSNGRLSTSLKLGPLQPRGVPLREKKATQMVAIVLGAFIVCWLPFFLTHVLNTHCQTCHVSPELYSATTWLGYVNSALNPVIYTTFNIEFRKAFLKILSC

[7] = molecular target: 5-hydroxytryptamine receptor 1D (Homo sapiens) (UniProt P28221); test: Compound was measured for its binding affinity at 5-hydroxytryptamine 1D receptor at a concentration of 10 uM using [3H]5-HT as radioligand
Chain of 5-hydroxytryptamine receptor 1D (Homo sapiens) (P28221 whole entry): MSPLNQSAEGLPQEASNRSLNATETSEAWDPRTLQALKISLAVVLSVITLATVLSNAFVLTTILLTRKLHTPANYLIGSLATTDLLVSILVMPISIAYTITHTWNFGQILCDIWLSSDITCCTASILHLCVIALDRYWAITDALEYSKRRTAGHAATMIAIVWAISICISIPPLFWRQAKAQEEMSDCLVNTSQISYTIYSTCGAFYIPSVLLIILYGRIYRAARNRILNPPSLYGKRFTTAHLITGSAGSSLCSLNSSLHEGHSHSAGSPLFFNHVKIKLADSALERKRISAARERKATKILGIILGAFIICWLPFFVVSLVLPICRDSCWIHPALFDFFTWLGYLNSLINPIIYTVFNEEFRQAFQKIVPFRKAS

D(2) dopamine receptor = D(2) dopamine receptor (Homo sapiens, UniProt P14416)
Chain of D(2) dopamine receptor (P14416 whole entry): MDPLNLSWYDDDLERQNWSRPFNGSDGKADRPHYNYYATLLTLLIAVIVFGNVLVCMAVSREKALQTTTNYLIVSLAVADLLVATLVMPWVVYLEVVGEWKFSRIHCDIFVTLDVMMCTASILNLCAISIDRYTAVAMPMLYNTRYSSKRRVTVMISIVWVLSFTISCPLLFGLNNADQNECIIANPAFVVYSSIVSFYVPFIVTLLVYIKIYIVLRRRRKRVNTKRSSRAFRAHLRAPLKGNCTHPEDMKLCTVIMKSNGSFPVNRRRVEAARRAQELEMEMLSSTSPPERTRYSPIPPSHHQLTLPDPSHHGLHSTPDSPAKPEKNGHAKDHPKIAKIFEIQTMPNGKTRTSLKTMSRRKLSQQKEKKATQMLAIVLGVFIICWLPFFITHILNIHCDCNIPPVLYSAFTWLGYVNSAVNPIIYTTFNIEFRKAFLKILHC
Description: Compound was measured in vivo for its binding affinity at Dopamine receptor D2 using [3H]spiperone as radioligand.

[8] = molecular target: T3, 5-hydroxytryptamine receptor 2C (Homo sapiens) (UniProt P28335); test: Compound was measured for its binding affinity at 5-hydroxytryptamine 1C receptor at a concentration of 100 nM using [3H]mesulergine as radioligand
T3 sequence (whole entry): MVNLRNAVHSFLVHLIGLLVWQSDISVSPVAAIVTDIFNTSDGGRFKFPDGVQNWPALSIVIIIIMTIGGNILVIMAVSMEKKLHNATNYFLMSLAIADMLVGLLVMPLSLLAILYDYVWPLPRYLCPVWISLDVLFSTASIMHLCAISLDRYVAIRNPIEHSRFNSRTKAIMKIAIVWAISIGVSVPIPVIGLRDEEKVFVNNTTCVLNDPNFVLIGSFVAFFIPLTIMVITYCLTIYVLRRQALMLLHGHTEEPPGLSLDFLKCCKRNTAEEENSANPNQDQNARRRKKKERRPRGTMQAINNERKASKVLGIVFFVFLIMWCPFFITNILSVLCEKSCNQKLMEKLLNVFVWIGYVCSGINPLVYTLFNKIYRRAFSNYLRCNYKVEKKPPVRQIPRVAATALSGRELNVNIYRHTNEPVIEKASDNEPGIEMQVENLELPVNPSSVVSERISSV

[9] = molecular target: D(1A) dopamine receptor (Homo sapiens) (UniProt P21728); test: Compound was measured for its binding affinity at Dopamine receptor D1 at a concentration of 10 uM using [3H]SCH-23390 as radioligand
Chain of D(1A) dopamine receptor (Homo sapiens) (P21728 whole entry): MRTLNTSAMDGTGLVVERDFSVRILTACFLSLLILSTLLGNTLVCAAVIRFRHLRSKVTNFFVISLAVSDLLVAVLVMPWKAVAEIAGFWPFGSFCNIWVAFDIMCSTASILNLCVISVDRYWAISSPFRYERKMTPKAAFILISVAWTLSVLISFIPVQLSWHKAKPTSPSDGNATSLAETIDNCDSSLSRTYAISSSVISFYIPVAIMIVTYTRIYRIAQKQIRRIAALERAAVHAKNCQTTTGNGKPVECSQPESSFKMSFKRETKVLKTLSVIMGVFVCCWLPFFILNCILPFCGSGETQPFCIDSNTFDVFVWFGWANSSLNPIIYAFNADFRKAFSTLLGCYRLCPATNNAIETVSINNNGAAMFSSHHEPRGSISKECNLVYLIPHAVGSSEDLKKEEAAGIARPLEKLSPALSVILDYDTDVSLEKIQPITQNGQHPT

[10] = molecular target: T4, 5-hydroxytryptamine receptor 1A (Homo sapiens, UniProt P08908); test: Compound was measured […] for its binding affinity at 5-hydroxytryptamine 1A receptor using [3H]8-OH-DPAT as radioligand
T4 sequence (P08908 whole entry): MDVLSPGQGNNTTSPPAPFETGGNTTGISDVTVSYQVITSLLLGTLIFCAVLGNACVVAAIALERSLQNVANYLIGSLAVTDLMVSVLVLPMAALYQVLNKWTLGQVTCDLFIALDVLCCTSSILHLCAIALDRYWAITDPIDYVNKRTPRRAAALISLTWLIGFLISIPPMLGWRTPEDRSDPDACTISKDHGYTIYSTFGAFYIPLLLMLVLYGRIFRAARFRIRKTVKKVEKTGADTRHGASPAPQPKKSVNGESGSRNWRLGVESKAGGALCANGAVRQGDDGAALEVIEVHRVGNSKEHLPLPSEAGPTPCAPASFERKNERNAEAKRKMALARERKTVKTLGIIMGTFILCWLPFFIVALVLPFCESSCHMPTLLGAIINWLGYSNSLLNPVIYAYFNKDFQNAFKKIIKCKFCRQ

[11] = molecular target: 5-hydroxytryptamine receptor 5B (Rattus norvegicus, UniProt P35365); test: Binding affinity against serotonin receptor
Chain of 5-hydroxytryptamine receptor 5B (P35365 whole entry): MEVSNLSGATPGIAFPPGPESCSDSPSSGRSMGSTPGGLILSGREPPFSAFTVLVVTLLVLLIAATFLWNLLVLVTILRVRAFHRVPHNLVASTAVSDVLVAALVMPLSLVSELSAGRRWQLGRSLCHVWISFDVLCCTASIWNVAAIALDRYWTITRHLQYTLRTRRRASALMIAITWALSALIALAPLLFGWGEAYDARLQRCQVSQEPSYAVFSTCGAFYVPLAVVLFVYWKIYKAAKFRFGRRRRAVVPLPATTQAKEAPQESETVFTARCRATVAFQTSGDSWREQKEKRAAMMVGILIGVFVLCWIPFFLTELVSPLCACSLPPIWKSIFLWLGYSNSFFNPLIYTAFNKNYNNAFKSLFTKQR

[12] = molecular target: T4, 5-hydroxytryptamine receptor 1A; test: Binding affinity against 5-hydroxytryptamine 1A receptor
Rattus norvegicus [13] = test: Compound was measured for its antipsychotic activity in the rat conditioned avoidance test, at a dose of 15 mg/kg compound administered perorally; type: functional; details: route oral
Rattus norvegicus [14] = test: Compound was measured for its antipsychotic activity in the rat conditioned avoidance test at a dose of 15 mg/kg administered perorally; type: functional; details: route oral
D(3) dopamine receptor [15] = molecular target: T2, D(3) dopamine receptor

| SMILES | inhibition [1] [%] | inhibition [2] [%] | Ki [4] [nM] | inhibition [5] [%] | inhibition (D(3) dopamine receptor [6]) [%] | inhibition [7] [%] | Ki (D(2) dopamine receptor) [nM] | inhibition [8] [%] | inhibition [9] [%] | Ki [10] [nM] | Ki [12] [nM] | other results |
| --- | --- | --- | --- | --- | --- | --- | --- | --- | --- | --- | --- | --- |
| O=C(c1cccc(CN2CCN3c4ccccc4OCC3C2)c1)N1CCc2ccccc21 (stereo not drawn) | 12.5 | 8.1 | > 1000 | 7.5 | 54 | 58.9 | > 1000 | -2.8 | 42.4 | 6.5 |  | inhibition in vivo at 15 mg/kg (Rattus norvegicus [3]): -20% |
| FC(F)(F)c1ccc2c(c1)N1CCNCC1CC2 (stereo not drawn) |  |  |  |  |  |  |  |  |  |  |  | Ki [11]: 67 nM |
| O=C1c2ccccc2C(=O)N1CCCCN1CCn2c(cc3ccccc32)C1 |  |  |  |  |  |  |  |  |  |  | 74 |  |
| O=C(c1cccc(CN2CCc3c([nH]c4ccccc34)C2)c1)N1CCc2ccccc21 | 22.6 | 8.8 | 2.9 | 29.9 | 56 | 86.1 | > 1000 | 8.7 | 40.8 | 9.2 |  | inhibition in vivo at 15 mg/kg (Rattus norvegicus [3]): -37% |
| COc1cccc2c1C1CCN(CCCN3C(=O)c4ccccc4S3(=O)=O)C[C@H]1C2 (stereo partly drawn) |  |  |  |  |  |  |  |  |  |  | 0.89 |  |
| CC(C)Oc1ccccc1N1CCN(Cc2cccc(C(=O)N3CCc4ccccc43)c2)CC1 |  |  | 1.7 |  |  |  |  |  |  | 3.4 |  | inhibition in vivo at 15 mg/kg (Rattus norvegicus [13]): -96% |
| CCCN1CCC[C@@H]2c3cc(O)ccc3CC[C@H]21 |  |  |  |  |  |  |  |  |  |  | 3.87 |  |
| O=C(c1cccc(CN2CCN3c4ccccc4OCC3C2)c1)N1CCCCC1 (stereo not drawn) | 5.1 | 3.4 | 200 | 7.5 | 64 | 63.8 | > 1000 | 5.6 | 14.7 | 12 |  | inhibition in vivo at 15 mg/kg (Rattus norvegicus [14]): -49% |
| CCCCCCN1CCc2c([nH]c3ccccc23)C1 |  |  |  |  |  |  |  |  |  |  | 79 |  |
| CC(C)Oc1ccccc1N1CCN(Cc2cccc(C(=O)N3CCCCC3)c2)CC1 [MAZAPERTINE] |  |  |  |  |  |  |  |  |  |  |  | Ki (D(3) dopamine receptor [15]): 1.8 nM |
| O=C(c1cccc(CN2CCc3c([nH]c4ccccc34)C2)c1)N1CCCCC1 | 13.6 | 1 | 36 | 18 | 27 | 74.7 | 374 | 5.5 | 23.7 | 13 |  | inhibition in vivo at 15 mg/kg (Rattus norvegicus [3]): -74% |
